From patent US12091411B2, “IRAK degraders and uses thereof” (Kymera Therapeutics, Inc., priority 2022, dated 2024)
Where two headings read alike, the source gives them in different places.

Target: T1, IRAK4 (Homo sapiens, UniProt Q9NWZ3)
T1 construct: Degradation of IRAK4 in OCI-LY10 was quantitatively measured using Meso Scale Discovery technology; endogenous in cells; host or cells: OCI-LY10
T1 sequence (Q9NWZ3 1-460): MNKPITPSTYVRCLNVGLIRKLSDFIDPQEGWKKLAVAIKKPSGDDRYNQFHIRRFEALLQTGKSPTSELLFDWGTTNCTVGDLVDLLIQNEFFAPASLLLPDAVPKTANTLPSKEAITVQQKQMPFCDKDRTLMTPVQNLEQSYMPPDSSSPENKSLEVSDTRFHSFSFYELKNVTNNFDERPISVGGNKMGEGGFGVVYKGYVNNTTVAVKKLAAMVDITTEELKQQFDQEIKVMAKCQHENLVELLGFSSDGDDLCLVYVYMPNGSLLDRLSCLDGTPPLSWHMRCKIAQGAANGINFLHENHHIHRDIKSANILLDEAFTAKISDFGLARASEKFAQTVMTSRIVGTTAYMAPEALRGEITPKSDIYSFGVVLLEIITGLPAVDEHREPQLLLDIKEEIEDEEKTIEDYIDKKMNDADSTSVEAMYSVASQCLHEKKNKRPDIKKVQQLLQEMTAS
Assay: IRAK4 MSD Degradation in OCI-LY10
Assay type: cell-based
Conditions: OCI-LY10 cells, MSD
How it was run: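 OCI-LY10 cells exposed to 8-point 1:3 compound series (top 1 to 10 μM) for 4 to 24 h at 37 °C, 5% CO2. Lysate IRAK4 quantified by MSD sandwich immunoassay. DC50 from three-parameter logistic fit, binned A (<0.01 μM) to D (>0.2 μM or not tested).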

[1] = 4 hrs incubation, read-out: IRAK4 degradation in OCI-LY10 at 4 hrs: DC50
[2] = 24 hrs incubation, read-out: IRAK4 degradation in OCI-LY10 at 24 hrs: DC50

| Compound | DC50 [1] [nM] | DC50 [2] [nM] |
| --- | --- | --- |
| Cn1c(=O)n(C2CCC(=O)NC2=O)c2cccc(N3CC(CO[C@H]4CCN(C[C@H]5CC[C@H](n6cc(NC(=O)c7cnn8ccc(N9C[C@H]%10CC9CO%10)nc78)c(C(F)F)n6)CC5)C[C@H]4F)C3)c21 (stereo partly shown) [I-588] | > 200 | < 10 |
| CN1CCN(c2ccn3ncc(C(=O)Nc4cn([C@H]5CC[C@H](CN6CCN(CC#Cc7cccc8c7n(C)c(=O)n8C7CCC(=O)NC7=O)CC6)CC5)nc4C(F)F)c3n2)CC1 (stereo partly shown) [I-300] | > 200 | < 10 |
| Cn1c(=O)n(C2CCC(=O)NC2=O)c2cccc(C#CCN3CCN(C[C@H]4CC[C@H](n5cc(NC(=O)c6cnn7ccc(N8C9COCC8C9)nc67)c(C(F)F)n5)CC4)CC3)c21 (stereo partly shown) [I-338] | > 200 | < 10 |
| O=C1CCC(c2cccc(C#CCOC3CCN(C[C@H]4CC[C@H](n5cc(NC(=O)c6cnn7ccc(N8C[C@H]9C[C@@H]8CO9)nc67)c(C(F)F)n5)CC4)CC3)c2)C(=O)N1 (stereo partly shown) [I-199] | > 200 | 10 to 100 |
| Cn1c(=O)n(C2CCC(=O)NC2=O)c2cccc(N3CC(CO[C@@H]4CCN(C[C@H]5CC[C@H](n6cc(NC(=O)c7cnn8ccc(N9C[C@H]%10CC9CO%10)nc78)c(C(F)F)n6)CC5)C[C@H]4F)C3)c21 (stereo partly shown) [I-586] | > 200 | < 10 |
| Cn1c(=O)n(C2CCC(=O)NC2=O)c2cccc(C#CCN3CCN(C[C@H]4CC[C@H](n5cc(NC(=O)c6cnn7ccc(N8CCN(CC(F)(F)F)CC8)nc67)c(C(F)F)n5)CC4)CC3)c21 (stereo partly shown) [I-410] | > 200 | > 200 |
| Cn1c(=O)n(C2CCC(=O)NC2=O)c2cccc(C#CC[C@@H]3CN(Cc4ccc(-n5cc(NC(=O)c6cnn7ccc(N8C[C@H]9C[C@@H]8CO9)nc67)c(C(F)F)n5)cc4)CCO3)c21 (stereo partly shown) [I-390] | > 200 | > 200 |
| Cn1c(=O)n(C2CCC(=O)NC2=O)c2ccc(F)c(N3CCN(C[C@H]4CC[C@H](n5cc6cc(NC(=O)c7cccc(C(F)(F)F)n7)ncc6n5)CC4)CC3)c21 (stereo partly shown) [I-694] | > 200 | < 10 |
| Cn1c(=O)n(C2CCC(=O)NC2=O)c2cccc(C3CCN(C[C@H]4CC[C@H](n5cc6cc(NC(=O)c7cccc(C(F)(F)F)n7)c(Cl)cc6n5)CC4)CC3(F)F)c21 (stereo partly shown) [I-450] | > 200 | > 200 |
| Cn1c(=O)n(C2CCC(=O)NC2=O)c2cccc(N3CCN([C@@H]4CCN(C[C@H]5CC[C@H](n6cc(NC(=O)c7cnn8ccc(N9C[C@H]%10C[C@@H]9CO%10)nc78)c(C(F)F)n6)CC5)CC4(F)F)CC3)c21 (stereo partly shown) [I-365] | > 200 | > 200 |
| CN(C[C@H]1CC[C@H](n2cc(NC(=O)c3cnn4ccc(N5CCSCC5)nc34)c(C(F)F)n2)CC1)C1CCN(c2cccc3c2n(C)c(=O)n3C2CCC(=O)NC2=O)CC1(F)F (stereo partly shown) [I-541] | > 200 | > 200 |
| COc1cc2nn([C@H]3CC[C@H](CN4CC=C(c5cccc6c(N7CCC(=O)NC7=O)cncc56)C(F)(F)C4)CC3)cc2cc1NC(=O)c1cccc(C(F)(F)F)n1 [I-466] | > 200 | > 200 |
| Cn1c(=O)n(C2CCC(=O)NC2=O)c2cccc(N3CCC(N(CC(F)(F)F)C[C@H]4CC[C@H](n5cc(NC(=O)c6cnn7cccnc67)c(C(F)F)n5)CC4)CC3)c21 (stereo partly shown) [I-313] | > 200 | > 200 |
| Cn1c(=O)n(C2CCC(=O)NC2=O)c2cccc(C#CCN3CCN(C[C@H]4CC[C@H](n5cc(NC(=O)c6cnn7ccc(N8C[C@H]9C[C@@H]8CO9)nc67)c(C(C)(C)O)n5)CC4)CC3)c21 (stereo partly shown) [I-279] | > 200 | > 200 |
| COc1cncc(C(=O)Nc2cc3cn([C@H]4CC[C@H](CN5CCC6(CC5)CCN(c5cccc7c5n(C)c(=O)n7C5CCC(=O)NC5=O)CC6)CC4)nc3cc2OC)c1 (stereo partly shown) [I-86] | > 200 | > 200 |
| Cn1c(=O)n(C2CCC(=O)NC2=O)c2cccc(C3CN(C[C@H]4CC[C@H](n5cc6cc(NC(=O)c7cccc(C(F)(F)F)n7)ccc6n5)CC4)C3)c21 (stereo partly shown) [I-609] | > 200 | > 200 |
| Cn1c(=O)n(C2CCC(=O)NC2=O)c2cccc(N3CC(C4CCN(C[C@H]5CC[C@H](n6cc(NC(=O)c7cnn8ccc(N9C[C@H]%10C[C@@H]9CO%10)nc78)c(C(F)F)n6)CC5)CC4(F)F)C3)c21 (stereo partly shown) [I-761] | > 200 | > 200 |
| Cn1c(=O)n(C2CCC(=O)NC2=O)c2cccc(C3CCN(C4CCN(C5CCC(n6cc(NC(=O)c7cnn8ccc(N9C[C@H]%10C[C@@H]9CO%10)nc78)c(C(F)F)n6)CC5)CC4)CC3)c21 (stereo partly shown) [I-423] | > 200 | > 200 |

Continued, values first:

| DC50 [1] [nM] | DC50 [2] [nM] | Compound |
| --- | --- | --- |
| > 200 | 10 to 100 | Cc1ccc(-c2nn([C@H]3CC[C@H](CN4CCC(OCC#Cc5cccc6c5n(C)c(=O)n6C5CCC(=O)NC5=O)CC4)CC3)cc2NC(=O)c2cnn3cccnc23)c(F)c1 (stereo partly shown) [I-171] |
| > 200 | > 200 | COc1cc2nn([C@H]3CC[C@H](CN4CCC5(CC4)CCN(c4cccc6c4n(C)c(=O)n6C4CCC(=O)NC4=O)CC5)CC3)cc2cc1NC(=O)c1cncc([S+]([O-])C(F)(F)F)c1 (stereo partly shown) [I-153] |
| 10 to 100 | > 200 | Cn1c(=O)n(C2CCC(=O)NC2=O)c2cccc(C#CCN3CCN(C[C@H]4CC[C@H](n5cc(NC(=O)c6cnn7ccc(N8CC(C)(C)OC(C)(C)C8)nc67)c(C(F)F)n5)CC4)CC3)c21 (stereo partly shown) [I-352] |
| > 200 | > 200 | Cn1c(=O)n(C2CCC(=O)NC2=O)c2cccc(N3CCN(CC4COC5(C4)CN(C[C@H]4CC[C@H](n6cc7cc(NC(=O)c8cccc(C(F)(F)F)n8)ncc7n6)CC4)C5)CC3)c21 (stereo partly shown) [I-662] |
| < 10 | > 200 | Cn1c(=O)n(C2CCC(=O)NC2=O)c2cccc([C@H]3CC[C@H](CN4CCN(C[C@H]5CC[C@H](n6cc(NC(=O)c7cnn8ccc(N9C[C@H]%10C[C@@H]9CO%10)nc78)c(C(F)F)n6)CC5)CC4)CC3)c21 (stereo partly shown) [I-362] |
| > 200 | > 200 | O=C1CCC(c2ccc(N3CC(N4CCN([C@H]5CC[C@H](n6cc(NC(=O)c7cnn8ccc(N9C[C@H]%10C[C@@H]9CO%10)nc78)c(C(F)F)n6)CC5)CC4)C3)cc2Cl)C(=O)N1 (stereo partly shown) [I-779] |
| < 10 | > 200 | Cn1c(=O)n(C2CCC(=O)NC2=O)c2cccc(C#CCCN3CCN(CC4CCC(n5cc(NC(=O)c6cnn7ccc(C8C[C@H]9C[C@@H]8CO9)nc67)c(C(F)F)n5)CC4)CC3)c21 (stereo partly shown) [I-162] |
| 10 to 100 | > 200 | Cn1c(=O)n(C2CCC(=O)NC2=O)c2cccc(C#CCN3CCN(C[C@H]4CC[C@H](n5cc(NC(=O)c6cnn7ccc(N8CC[C@]9(CCOC9)C8)nc67)c(C(F)F)n5)CC4)CC3)c21 (stereo partly shown) [I-418] |
| < 10 | > 200 | Cn1c(=O)n(C2CCC(=O)NC2=O)c2cccc([C@]34C[C@](COC5CCN(C[C@H]6CC[C@H](n7cc(NC(=O)c8cnn9ccc(N%10C[C@H]%11C[C@@H]%10CO%11)nc89)c(C(F)F)n7)CC6)CC5)(C3)C4)c21 (stereo partly shown) [I-3] |
| > 200 | > 200 | Cn1c(=O)n(C2CCC(=O)NC2=O)c2cccc([C@H]3C[C@H](O[C@H]4CCN(C[C@H]5CC[C@H](n6cc(NC(=O)c7cnn8ccc(N9C[C@H]%10C[C@@H]9CO%10)nc78)c(C(F)F)n6)CC5)C[C@H]4F)C3)c21 (stereo partly shown) [I-596] |
| < 10 | > 200 | O=C1CCN(c2cncc3cc(N4CCN(C5CCN(C[C@H]6CC[C@H](n7cc(NC(=O)c8cnn9ccc(N%10C[C@H]%11C[C@@H]%10CO%11)nc89)c(C(F)F)n7)CC6)CC5)CC4)ccc23)C(=O)N1 [I-77] |
